In US12686682B2, “Indazole acetylene derivatives” (Hoffmann-La Roche Inc., priority 2020, dated 2026):

target: T1, Phospho EGFR LRCS (BaF3-LRCS cell line) (Homo sapiens, UniProt P00533, C797S/L858R); test: HTRF Phospho EGFR LRCS Assay (Cellular); assay type: cell-based; details: BaF3-LRCS cells, 4 hours incubation, HTRF phospho-EGFR readout
T1 construct: host or cells: BaF3 (BaF3-LRCS), kept under puromycin selection
Method: HTRF Phospho EGFR LRCS Assay (Cellular)
BaF3-LRCS cell line were obtained from Crownbio (San Diego, CA, USA). Cells were maintained at 37° C., 5% C02 in RPMI ATCC (Gibco 31870)+2 mM Glutamine+0.5 μg/ml Puromycin supplemented with 10% fetal bovine serum (FBS) (Gibco).
Cells are transferred as above to Greiner Bio-One, Nr. 784-08 micro-titerplate at 20000 cells/well in 12.5 μl of growth medium/well after the plates had been pre-filled with 12.5 nl of DMSO solutions of the to be tested compounds (in dose response) or DMSO only. After spinning the plates at 300×g for 30 seconds the cells were incubated for 4 hours at 37 C, 5% C02, 95% humidity. The cells were lysed by adding to the compound mix 4 µl/well of the supplemented lysis buffer (Cis-bio, Phospho-EGFR HTRF kit, 64EG1PEH), followed by incubation for 30 min at room temperature with shaking (400 rpm). The plates were then frozen and stored overnight at −80° C. On the next day and after thawing the plates, 4 μl of a mixture of anti-Phospho-EGFR Cryptate and of anti-Phospho-EGFR-d2 antibody solutions prepared in the supplied detection buffer was added to each well. The lidded plates were then incubated for 4 h at room temperature before reading the fluorescence emission at 616 and 665 nm using an Envision reader (Perkin Elmer). Data was analyzed in similar fashion as above using the normalized ratio of the 665 to 616 signals multiplied by 10000.

T1 sequence (P00533 25-1210 C797S/L858R): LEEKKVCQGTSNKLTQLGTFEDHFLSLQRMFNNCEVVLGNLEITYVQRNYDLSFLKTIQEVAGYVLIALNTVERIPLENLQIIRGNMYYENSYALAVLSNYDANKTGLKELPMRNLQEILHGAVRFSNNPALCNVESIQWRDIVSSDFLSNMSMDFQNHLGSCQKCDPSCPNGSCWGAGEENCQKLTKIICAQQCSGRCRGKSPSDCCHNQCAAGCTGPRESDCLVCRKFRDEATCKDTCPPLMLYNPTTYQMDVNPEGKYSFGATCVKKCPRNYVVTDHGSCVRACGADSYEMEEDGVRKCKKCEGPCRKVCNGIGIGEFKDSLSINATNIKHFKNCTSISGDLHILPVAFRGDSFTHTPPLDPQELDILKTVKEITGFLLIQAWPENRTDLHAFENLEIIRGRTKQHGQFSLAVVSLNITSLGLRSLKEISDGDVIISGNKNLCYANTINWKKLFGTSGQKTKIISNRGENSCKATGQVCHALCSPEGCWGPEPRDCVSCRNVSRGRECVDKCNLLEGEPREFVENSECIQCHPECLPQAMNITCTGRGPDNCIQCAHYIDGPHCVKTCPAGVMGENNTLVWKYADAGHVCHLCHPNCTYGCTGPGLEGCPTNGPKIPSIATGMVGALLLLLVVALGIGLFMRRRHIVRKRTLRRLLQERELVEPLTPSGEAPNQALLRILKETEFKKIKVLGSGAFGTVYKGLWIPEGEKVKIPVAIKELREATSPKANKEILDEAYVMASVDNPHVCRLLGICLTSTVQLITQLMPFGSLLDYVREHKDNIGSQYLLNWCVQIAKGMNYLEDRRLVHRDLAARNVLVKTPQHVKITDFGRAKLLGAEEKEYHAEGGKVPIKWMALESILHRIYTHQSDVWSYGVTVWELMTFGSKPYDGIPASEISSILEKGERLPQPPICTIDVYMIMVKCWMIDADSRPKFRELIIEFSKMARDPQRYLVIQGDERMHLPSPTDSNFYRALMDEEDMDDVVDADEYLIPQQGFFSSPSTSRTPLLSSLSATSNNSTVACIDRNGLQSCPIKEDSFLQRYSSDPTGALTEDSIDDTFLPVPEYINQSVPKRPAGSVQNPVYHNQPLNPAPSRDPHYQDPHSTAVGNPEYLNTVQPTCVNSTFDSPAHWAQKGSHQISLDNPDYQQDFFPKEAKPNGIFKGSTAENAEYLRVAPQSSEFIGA

SMILES	IC50 [nM]
Cc1c(C#Cc2ccc(CN3CCC(CO)CC3)cc2)cc(C(F)F)c2cn(C(C(=O)Nc3nccs3)c3ncn4c3CCC4)nc12 (centres unmarked) [Example 2, 2-[4-(Difluoromethyl)-6-[2-[4-[[4-(hydroxymethyl)-1-piperidyl]methyl]phenyl]ethynyl]-7-methyl-indazol-2-yl]-2-(6,7-dihydro-5H-pyrrolo[1,2-c]imidazol-1-yl)-N-thiazol-2-yl-acetamide]	23
Cc1c(C#Cc2ccc(CN3CCC(CO)CC3)cc2)cc(C(F)(F)F)c2cn(C(C(=O)Nc3nccs3)c3ncn4c3CCC4)nc12 (centres unmarked) [Example 4, 2-(6,7-Dihydro-5H-pyrrolo[1,2-c]imidazol-1-yl)-2-[6-[2-[4-[[4-(hydroxymethyl)-1-piperidyl]methyl]phenyl]ethynyl]-7-methyl-4-(trifluoromethyl)indazol-2-yl]-N-thiazol-2-yl-acetamide]	9
Cc1c(C#Cc2ccc(CN3CCC(CO)CC3)cc2)cc(C(F)F)c2cn(C(C(=O)Nc3nccs3)c3ncn4c3CCC4(C)C)nc12 (centres unmarked) [Example 5, 2-[4-(Difluoromethyl)-6-[2-[4-[[4-(hydroxymethyl)-1-piperidyl]methyl]phenyl]ethynyl]-7-methyl-indazol-2-yl]-2-(5,5-dimethyl-6,7-dihydropyrrolo[1,2-c]imidazol-1-yl)-N-thiazol-2-yl-acetamide]	11
Cc1c(C#Cc2ccc(CN3CCC(CO)CC3)cc2)cc(C(F)F)c2cn(C(C(=O)Nc3nccs3)c3ncn4c3CCC43CC3)nc12 (centres unmarked) [Example 6]	10
Cc1c(C#Cc2ccc(CN3CCC(CO)CC3)cc2)cc(C(F)(F)F)c2cn(C(C(=O)Nc3nccs3)c3ncn4c3CCC4(C)C)nc12 (centres unmarked) [Example 8, 2-(5,5-Dimethyl-6,7-dihydropyrrolo[1,2-c]imidazol-1-yl)-2-[6-[2-[4-[[4-(hydroxymethyl)-1-piperidyl]methyl]phenyl]ethynyl]-7-methyl-4-(trifluoromethyl)indazol-2-yl]-N-thiazol-2-yl-acetamide]	12

Continued by falling IC50, values first:

IC50 [nM]	SMILES
22	Cc1c(C#Cc2ccc(CN3CCC(CO)CC3)cc2)cc(C(F)F)c2cn(C(C(=O)Nc3nccs3)c3ncn4c3C[C@@H](F)C4)nc12 (stereo partly drawn) [Example 1, 2-[4-(Difluoromethyl)-6-[2-[4-[[4-(hydroxymethyl)-1-piperidyl]methyl]phenyl]ethynyl]-7-methyl-indazol-2-yl]-2-[(6R)-6-fluoro-6,7-dihydro-5H-pyrrolo[1,2-c]imidazol-1-yl]-N-thiazol-2-yl-acetamide]
15	Cc1c(C#Cc2ccc(CN3CCC(CO)CC3)cc2)cc(C(F)(F)F)c2cn(C(C(=O)Nc3nccs3)c3ncn4c3C[C@@H](F)C4)nc12 (stereo partly drawn) [Example 3, 2-[(6R)-6-Fluoro-6,7-dihydro-5H-pyrrolo[1,2-c]imidazol-1-yl]-2-[6-[2-[4-[[4-(hydroxymethyl)-1-piperidyl]methyl]phenyl]ethynyl]-7-methyl-4-(trifluoromethyl)indazol-2-yl]-N-thiazol-2-yl-acetamide]
11	Cc1c(C#Cc2ccc(CN3CCC(CO)CC3)cc2)cc(C(F)(F)F)c2cn(C(C(=O)Nc3nccs3)c3ncn4c3CCC43CC3)nc12 (centres unmarked) [Example 7]
